Experimental data published in ChEMBL document CHEMBL3885881, “DrugMatrix”.

Species: Rattus norvegicus
Test: DrugMatrix - Regimen: Daily Repeat
Format: toxicity, organism-based, Sprague-Dawley
Parameters: regimen Daily Repeat, gender Male, age 6-8 weeks
Conditions: in vivo, ip, 60 mg/kg, route intraperitoneal, dose level High, vehicle 100 % PBS; for BASOPHIL / EOSINOPHIL / ERYTHROCYTE COUNT / HEMATOCRIT / HEMOGLOBIN / LEUKOCYTE COUNT / LYMPHOCYTE / MEAN CORPUSCULAR HEMOGLOBIN / MEAN CORPUSCULAR HEMOGLOBIN CONCENTRATION / MEAN CORPUSCULAR VOLUME / MONOCYTE / NEUTROPHIL / PLATELET COUNT: tissue Blood; for ALANINE AMINOTRANSFERASE / ALBUMIN / ALKALINE PHOSPHATASE / ASPARTATE AMINOTRANSFERASE / BLOOD UREA NITROGEN / CARBON DIOXIDE / CHLORIDE / CHOLESTEROL / CREATINE PHOSPHOKINASE / CREATININE / GLUCOSE / LACTATE DEHYDROGENASE / LIPASE / PHOSPHORUS / POTASSIUM / SODIUM / TOTAL BILIRUBIN / TOTAL PROTEIN / URIC ACID: tissue Plasma

## C[C@H]1C(=O)O[C@@H]2CCN3CC=C(COC(=O)[C@](C)(O)[C@]1(C)O)[C@H]23 [MONOCROTALINE]
72 h, time 3 day
  BASOPHIL: 1.7%
  EOSINOPHIL: 1%
  ERYTHROCYTE COUNT: 6.77 x10E6/uL
  HEMATOCRIT: 46.53%
  HEMOGLOBIN: 14.7 G/DL
  LEUKOCYTE COUNT: 8.87 x10E3/uL
  LYMPHOCYTE: 84.3%
  MEAN CORPUSCULAR HEMOGLOBIN: 21.73 pg
  MEAN CORPUSCULAR HEMOGLOBIN CONCENTRATION: 31.63 G/DL
  MEAN CORPUSCULAR VOLUME: 68.73 fL
  MONOCYTE: 1.9%
  NEUTROPHIL: 9.57%
  PLATELET COUNT: 1156.67 x10E3/uL
  ALANINE AMINOTRANSFERASE: 33.67 u/L
  ALBUMIN: 4.27 G/DL
  ALKALINE PHOSPHATASE: 425.33 u/L
  ASPARTATE AMINOTRANSFERASE: 77.33 u/L
  BLOOD UREA NITROGEN: 16 mg/dL
  CARBON DIOXIDE: 30 mmol/L
  CHLORIDE: 104.33 MEQ/L
  CHOLESTEROL: 79 mg/dL
  CREATINE PHOSPHOKINASE: 394.33 u/L
  CREATININE: 0.47 mg/dL
  GLUCOSE: 166.33 mg/dL
  LACTATE DEHYDROGENASE: 66 u/L
  LIPASE: 14.67 u/L
  PHOSPHORUS: 12.57 mg/dL
  POTASSIUM: 7.2 MEQ/L
  SODIUM: 148.33 MEQ/L
  TOTAL BILIRUBIN: 0.47 mg/dL
  TOTAL PROTEIN: 6.57 G/DL
  URIC ACID: 1.77 mg/dL
120 h, time 5 day
  BASOPHIL: 0.4%
  EOSINOPHIL: 0.6%
  ERYTHROCYTE COUNT: 7.1 x10E6/uL
  HEMATOCRIT: 48.3%
  HEMOGLOBIN: 14.93 G/DL
  LEUKOCYTE COUNT: 10.69 x10E3/uL
  LYMPHOCYTE: 91.33%
  MEAN CORPUSCULAR HEMOGLOBIN: 21.03 pg
  MEAN CORPUSCULAR HEMOGLOBIN CONCENTRATION: 30.93 G/DL
  MEAN CORPUSCULAR VOLUME: 68.03 fL
  MONOCYTE: 1.63%
  NEUTROPHIL: 5.2%
  PLATELET COUNT: 1323.67 x10E3/uL
  ALANINE AMINOTRANSFERASE: 48 u/L
  ALBUMIN: 4.1 G/DL
  ALKALINE PHOSPHATASE: 488 u/L
  ASPARTATE AMINOTRANSFERASE: 69 u/L
  BLOOD UREA NITROGEN: 13 mg/dL
  CARBON DIOXIDE: 30 mmol/L
  CHLORIDE: 108 MEQ/L
  CHOLESTEROL: 65.67 mg/dL
  CREATINE PHOSPHOKINASE: 139 u/L
  CREATININE: 0.23 mg/dL
  GLUCOSE: 152.33 mg/dL
  LACTATE DEHYDROGENASE: 44.67 u/L
  LIPASE: 13.33 u/L
  PHOSPHORUS: 14.7 mg/dL
  POTASSIUM: 6.77 MEQ/L
  SODIUM: 155 MEQ/L
  TOTAL BILIRUBIN: 0.2 mg/dL
  TOTAL PROTEIN: 6.33 G/DL
  URIC ACID: 1.63 mg/dL
[…], time 14 day
  BASOPHIL: 0.38%
  EOSINOPHIL: 0.48%
  ERYTHROCYTE COUNT: 8.25 x10E6/uL
  HEMATOCRIT: 49.54%
  HEMOGLOBIN: 16.32 G/DL
  LEUKOCYTE COUNT: 14.35 x10E3/uL
  LYMPHOCYTE: 85.94%
  MEAN CORPUSCULAR HEMOGLOBIN: 19.8 pg
  MEAN CORPUSCULAR HEMOGLOBIN CONCENTRATION: 32.96 G/DL
  MEAN CORPUSCULAR VOLUME: 60.04 fL
  MONOCYTE: 1.94%
  NEUTROPHIL: 9.64%
  PLATELET COUNT: 1232.8 x10E3/uL
  ALANINE AMINOTRANSFERASE: 40.6 u/L
  ALBUMIN: 4.46 G/DL
  ALKALINE PHOSPHATASE: 403.4 u/L
  ASPARTATE AMINOTRANSFERASE: 73.6 u/L
  BLOOD UREA NITROGEN: 15.2 mg/dL
  CARBON DIOXIDE: 30.8 mmol/L
  CHLORIDE: 102.2 MEQ/L
  CHOLESTEROL: 89.2 mg/dL
  CREATINE PHOSPHOKINASE: 155.8 u/L
  CREATININE: 0.44 mg/dL
  GLUCOSE: 145 mg/dL
  LACTATE DEHYDROGENASE: 118.6 u/L
  LIPASE: 18.2 u/L
  PHOSPHORUS: 9.42 mg/dL
  POTASSIUM: 6.64 MEQ/L
  SODIUM: 148.8 MEQ/L
  TOTAL BILIRUBIN: 0.56 mg/dL
  TOTAL PROTEIN: 7.2 G/DL
  URIC ACID: 2.16 mg/dL
